Source: US20040142971A1, “BENZOTHIOPHENE COMPOUNDS HAVING ANTIINFECTIVE ACTIVITY” (GeneSoft, Inc., priority 2001, published 2004)

Tests used:
Test in all cases: MIC, NCCLS broth microdilution
[1] = test system: S. aureus ATCC 13709 (methicillin sensitive strain, MSSA); format: cell-based, Staphylococcus aureus; settings: C = S. aureus ATCC 13709
Description: (§1) In vitro biological activity data were collected for a variety of microorganisms, including Bacillus cereus (ATCC 11778), Staphylococcus aureus (ATCC 27660 (a methicillin resistant strain (MRSA), ATCC 33591 and ATCC 43300); ATCC 13709, a methicillin sensitive strain (MSSA)); Streptococcus pneumoniae (ATCC 51422, a penicillin resistant strain (PRSP)), Enterococcus faecium (ATCC 51559, a vancomycin resistant strain (VRE)), and Staphylococcus epidermidis (ATCC 700586, a methycillin resistant strain (MRSE)). Additionally, antifungal activity data were collected for Candida albicans (ATCC 38247). Minimal inhibition concentrations (MIC's) were determined using the National Committee for Clinical Laboratory Standards (NCCLS) broth microdilution assay in microtiter plates, as set forth in: (1) the guidelines of the National Committee for Clinical Laboratory Standards (NCCLS) Document M7-A4 (NCCLS, 1997); (2) the guidelines of the National Committee for Clinical Laboratory Standards (NCCLS) Document M11-A4 (NCCLS, 1997); and (3) the guidelines and reference method of the National Committee for Clinical Laboratory Standards (NCCLS) Document M27-T (NCCLS, 1995). For antifungal essays, the method recommended in Murray, PR., 1995 Manual of Clinical Microbiology (ASM Press, Washington, D.C.), was employed.

[2] = test system: S. aureus ATCC 27660 (methicillin resistant strain, MRSA); format: cell-based, Staphylococcus aureus; settings: D = S. aureus ATCC 27660
Description: as §1

S. aureus ATCC 33591 = format: cell-based, Staphylococcus aureus; settings: E = S. aureus ATCC 33591
Description: as §1

B. Cereus ATCC 11778 = format: cell-based, Bacillus cereus; settings: A = B. Cereus ATCC 11778
Description: as §1

| Structure (SMILES) | Minimum Inhibitory Concentration (MIC) [1] | Minimum Inhibitory Concentration (MIC) [2] | Minimum Inhibitory Concentration (MIC) (S. aureus ATCC 33591) | Minimum Inhibitory Concentration (MIC) (B. Cereus ATCC 11778) |
| --- | --- | --- | --- | --- |
| Cn1cc(NC(=O)c2cc(NC(=O)c3cc(NC(=O)c4sc5cc([N+](=O)[O-])ccc5c4Cl)cn3C)cn2C)cc1C(=O)NCCN1CCOCC1 [Ib-20j] | +++ (+++ = MIC ≦ 4) | +++ (+++ = MIC ≦ 4) | +++ (+++ = MIC ≦ 4) | +++ (+++ = MIC ≦ 4) |
| Cn1cc(NC(=O)c2sc3cc4c(cc3c2Cl)OCO4)cc1C(=O)NCCN1CCCCC1 [Ib-20n] | +++ (+++ = MIC ≦ 4) | +++ (+++ = MIC ≦ 4) | +++ (+++ = MIC ≦ 4) | +++ (+++ = MIC ≦ 4) |
| Cn1cc(NC(=O)c2cc3cc4c(cc3s2)OCO4)cc1C(=O)NCCN1CCSCC1 [Ib-20w] | +++ (+++ = MIC ≦ 4) | +++ (+++ = MIC ≦ 4) | +++ (+++ = MIC ≦ 4) | +++ (+++ = MIC ≦ 4) |
| Cn1cc(NC(=O)c2cc3cc4c(cc3s2)OCO4)cc1C(=O)NCCN1CCCC1 [Ib-20x] | +++ (+++ = MIC ≦ 4) | +++ (+++ = MIC ≦ 4) | +++ (+++ = MIC ≦ 4) | +++ (+++ = MIC ≦ 4) |
| Cn1cc(NC(=O)c2cc(NC(=O)c3cc(NC(=O)c4sc5cc6c(cc5c4Cl)OCO6)cn3C)cn2C)cc1C(=O)NCCN1CCCCC1 [Ib-20l] | +++ (+++ = MIC ≦ 4) | +++ (+++ = MIC ≦ 4) | +++ (+++ = MIC ≦ 4) | +++ (+++ = MIC ≦ 4) |
| CN(C)c1ccc2c(Cl)c(C(=O)Nc3cc(C(=O)Nc4cc(C(=O)Nc5cc(C(=O)NCCN6CCOCC6)n(C)c5)n(C)c4)n(C)c3)sc2c1 [Ib-20k] | +++ (+++ = MIC ≦ 4) | +++ (+++ = MIC ≦ 4) |  | >32 µg/mL |
| Cn1cc(NC(=O)c2cc(NC(=O)c3cc(NC(=O)c4cc5ccccc5cn4)c[nH]3)cn2C)cc1C(=O)NCCN1CCC(F)(F)CC1 [Ib-78] | +++ (+++ = MIC ≦ 4) | +++ (+++ = MIC ≦ 4) | +++ (+++ = MIC ≦ 4) | +++ (+++ = MIC ≦ 4) |
| Cn1cc(NC(=O)c2cc3ccccc3cn2)cc1C(=O)Nc1cc(C(=O)Nc2ccc3sc(C(=O)NCCN4CCOCC4)cc3c2)n(C)c1 [Id-1] |  |  |  | >32 µg/mL |
| Cn1cc(NC(=O)c2cc(NC(=O)c3cc(NC(=O)c4sc5cc6c(cc5c4Cl)OCO6)cn3C)cn2C)cc1C(=O)NCCN1CCSCC1 [Ib-20i] | +++ (+++ = MIC ≦ 4) | +++ (+++ = MIC ≦ 4) |  | +++ (+++ = MIC ≦ 4) |
| Cn1cc(NC(=O)c2cc(NC(=O)c3sc4ccccc4c3Cl)cn2C)cc1C(=O)NCCN1CCC(O)CC1 [Ib-20a] | +++ (+++ = MIC ≦ 4) | +++ (+++ = MIC ≦ 4) |  | +++ (+++ = MIC ≦ 4) |
| Cn1cc(NC(=O)c2cc3ccccc3cn2)cc1C(=O)Nc1cc(C(=O)Nc2cc(C(=O)NCCN3CCOCC3)ns2)n(C)c1 [Ib-52] | +++ (+++ = MIC ≦ 4) | ++ (++ = MIC between 4 and 12) |  | +++ (+++ = MIC ≦ 4) |
| Cn1cc(NC(=O)c2cc3cc4c(cc3s2)OCO4)cc1C(=O)NCCN1CCOCC1 [Ib-20t] | +++ (+++ = MIC ≦ 4) | +++ (+++ = MIC ≦ 4) | +++ (+++ = MIC ≦ 4) | +++ (+++ = MIC ≦ 4) |
| Cn1cc(NC(=O)c2cc3ccccc3cn2)cc1C(=O)Nc1cc(C(=O)Nc2c[nH]c(C(=O)NCCN3CCSCC3)c2)n(C)c1 [Ib-54] | + (+ = MIC from 12 to 32, inclusive) | + (+ = MIC from 12 to 32, inclusive) |  | ++ (++ = MIC between 4 and 12) |
| Cn1cc(NC(=O)c2sc3cc4c(cc3c2Cl)OCO4)cc1C(=O)NCCN1CCC(F)(F)CC1 [Ib-20q] | +++ (+++ = MIC ≦ 4) | +++ (+++ = MIC ≦ 4) | +++ (+++ = MIC ≦ 4) | >32 µg/mL |
| Cn1cc(NC(=O)c2cc3ccccc3cn2)cc1C(=O)Nc1cc(C(=O)Nc2cn(C)c(C(=O)NCCN3CCOCC3)n2)n(C)c1 [Ib-58] | +++ (+++ = MIC ≦ 4) | +++ (+++ = MIC ≦ 4) | +++ (+++ = MIC ≦ 4) | +++ (+++ = MIC ≦ 4) |
| Cn1cc(NC(=O)c2cc(NC(=O)c3cc(NC(=O)c4sc5ccccc5c4Cl)cn3C)cn2C)cc1C(=O)NCC[N+]1(C)CCOCC1 [Ib-20b] | +++ (+++ = MIC ≦ 4) | +++ (+++ = MIC ≦ 4) | +++ (+++ = MIC ≦ 4) | +++ (+++ = MIC ≦ 4) |
| CN(C)CCSCCn1cc(NC(=O)c2cc3ccccc3cn2)cc1C(=O)Nc1cc(C(=O)Nc2ccc3cnccc3c2)n(C)c1 [Ib-73] | +++ (+++ = MIC ≦ 4) | +++ (+++ = MIC ≦ 4) | +++ (+++ = MIC ≦ 4) | +++ (+++ = MIC ≦ 4) |
| Cn1cc(NC(=O)c2sc3cc4c(cc3c2Cl)OCO4)cc1C(=O)NCCN1CCOCC1 [Ib-20f] | +++ (+++ = MIC ≦ 4) | +++ (+++ = MIC ≦ 4) | +++ (+++ = MIC ≦ 4) | +++ (+++ = MIC ≦ 4) |
| Cn1cc(NC(=O)c2cc(NC(=O)c3cc(NC(=O)c4cc5ccccc5cn4)cs3)cn2C)cc1C(=O)NCCN1CCOCC1 [Ib-51] | +++ (+++ = MIC ≦ 4) | +++ (+++ = MIC ≦ 4) |  | +++ (+++ = MIC ≦ 4) |
| Cn1cc(NC(=O)c2cc(NC(=O)c3cc4cc5c(cc4s3)OCO5)cn2C)cc1C(=O)NCCN1CCOCC1 [Ib-20u] | +++ (+++ = MIC ≦ 4) | +++ (+++ = MIC ≦ 4) | +++ (+++ = MIC ≦ 4) | +++ (+++ = MIC ≦ 4) |
| CCN(CC)CCNC(=O)c1cc(NC(=O)c2cc(NC(=O)c3cc(NC(=O)c4cc5ccccc5cn4)cn3C)cn2C)sn1 [Ib-53] | ++ (++ = MIC between 4 and 12) | + (+ = MIC from 12 to 32, inclusive) |  | ++ (++ = MIC between 4 and 12) |
| Cc1ccc2c(Cl)c(C(=O)Nc3cc(C(=O)Nc4cc(C(=O)Nc5cc(C(=O)NCCN6CCOCC6)n(C)c5)n(C)c4)n(C)c3)sc2c1 [Ib-20c] | +++ (+++ = MIC ≦ 4) | +++ (+++ = MIC ≦ 4) | +++ (+++ = MIC ≦ 4) | +++ (+++ = MIC ≦ 4) |
| Cn1cc(NC(=O)c2cc(NC(=O)c3cc(NC(=O)c4cc5ccccc5cn4)cn3C)cn2CCN2CCOCC2)cc1C(=O)NCCN1CCOCC1 [Ib-57] | +++ (+++ = MIC ≦ 4) | +++ (+++ = MIC ≦ 4) | +++ (+++ = MIC ≦ 4) | +++ (+++ = MIC ≦ 4) |
